Assay results taken from the supplement of paper PMC10307832.

How the values were obtained:
Experiment in all cases: relative viability (nuclei count vs DMSO), 5 days (fraction); higher = more cells survive
Tozasertib + Luminespib = compound: Cc1cc(Nc2cc(N3CCN(C)CC3)nc(Sc3ccc(NC(=O)C4CC4)cc3)n2)n[nH]1 [Tozasertib] + CCNC(=O)c1noc(-c2cc(C(C)C)c(O)cc2O)c1-c1ccc(CN2CCOCC2)cc1 [Luminespib] (partner 0.01 µM)
In short: (§1)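 For relative viability, nuclei counts in treated wells were divided by those in vehicle wells. Lung cancer cell lines had been pin-tool dosed in 1536-well plates the day after seeding and cultured for 5 days, then fixed and stained in one step (final 0.05% Triton X-100, 1% formaldehyde, 1 ug/ml Hoechst) and imaged at 4×. Doses were one drug alone or a fixed anchor-drug dose plus five library-drug doses (not always all listed) in √10 steps, and values are duplicate-plate medians.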

Tozasertib + OSI-027 = compound: Cc1cc(Nc2cc(N3CCN(C)CC3)nc(Sc3ccc(NC(=O)C4CC4)cc3)n2)n[nH]1 [Tozasertib] + COc1cccc2cc(-c3nc([C@H]4CC[C@H](C(=O)O)CC4)n4ncnc(N)c34)[nH]c12 [OSI-027] (partner 0.5 µM)
In short: as §1

Tozasertib + Trametinib = compound: Cc1cc(Nc2cc(N3CCN(C)CC3)nc(Sc3ccc(NC(=O)C4CC4)cc3)n2)n[nH]1 [Tozasertib] + CC(=O)Nc1cccc(-n2c(=O)n(C3CC3)c(=O)c3c(Nc4ccc(I)cc4F)n(C)c(=O)c(C)c32)c1 [Trametinib] (partner 0.02 µM)
In short: as §1

Tozasertib + Palbociclib = compound: Cc1cc(Nc2cc(N3CCN(C)CC3)nc(Sc3ccc(NC(=O)C4CC4)cc3)n2)n[nH]1 [Tozasertib] + CC(=O)c1c(C)c2cnc(Nc3ccc(N4CCNCC4)cn3)nc2n(C2CCCC2)c1=O [Palbociclib] (partner 0.5 µM)
In short: as §1

Cell Line	relative viability (Tozasertib + Luminespib; first compound 0.004 µM)	relative viability (Tozasertib + Luminespib; first compound 0.01265 µM)	relative viability (Tozasertib + Luminespib; first compound 0.1265 µM)	relative viability (Tozasertib + OSI-027; first compound 0.004 µM)	relative viability (Tozasertib + OSI-027; first compound 0.01265 µM)	relative viability (Tozasertib + OSI-027; first compound 0.04 µM)	relative viability (Tozasertib + OSI-027; first compound 0.1265 µM)	relative viability (Tozasertib + Trametinib; first compound 0.004 µM)	relative viability (Tozasertib + Trametinib; first compound 0.01265 µM)	relative viability (Tozasertib + Trametinib; first compound 0.04 µM)	relative viability (Tozasertib + Trametinib; first compound 0.1265 µM)	relative viability (Tozasertib + Palbociclib; first compound 0.004 µM)	relative viability (Tozasertib + Palbociclib; first compound 0.01265 µM)	relative viability (Tozasertib + Palbociclib; first compound 0.04 µM)	relative viability (Tozasertib + Palbociclib; first compound 0.1265 µM)	relative viability (Tozasertib + Luminespib; first compound 0.04 µM)
201T	1.12	1.06	1.11	0.76	0.781	0.839	0.621	0.707	0.705	0.759	0.71	0.355	0.362	0.364	0.224	
A-427	0.983	0.857	0.481	0.457	0.478	0.48	0.332	0.783	0.68	0.818	0.509	0.55	0.487	0.517	0.423	0.97
ABC-1	0.521	0.638	0.686	0.542	0.495	0.58	0.207					0.722	0.769	0.44	0.533	0.402
BEN	0.302	0.279	0.268	0.333	0.335	0.309	0.284	1.03	1.02		0.961	0.455	0.475	0.481	0.432	0.332
CAL-12T	0.288	0.405	0.368	0.954	0.562	0.719	0.214	0.439	0.27	0.445	0.219	0.713	0.41	0.459	0.242	0.58
COR-L23	0.836	0.619	0.637	0.747	0.726	0.635	0.538	0.613	0.599	0.609	0.332	0.309	0.297	0.274	0.161	0.618
COR-L 105	0.842	0.966	0.609	0.698	0.68	0.731	0.343	0.436	0.393	0.461	0.329	0.353	0.393	0.419	0.356	0.761
ChaGo-K-1	0.643	0.672	0.45	0.584	0.511	0.562	0.31	0.879	0.838	0.895	0.736	0.902	0.881	0.949	0.477	0.623
EKVX	0.753	0.872	0.694	0.692	0.671	0.734		0.369	0.301	0.339	0.422		0.367	0.418	0.412	0.827
EMC-BAC-2	1.15	1.11	0.827	0.381	0.389	0.381	0.262	0.873	0.826	0.928		0.542	0.501	0.514	0.433	1.3
EPLC-272H	0.267	0.307	0.288	0.289	0.256	0.288	0.265	0.263	0.308	0.32	0.259	0.367	0.313	0.318	0.356	0.197
H3255	0.753	0.67	0.879	0.452	0.492	0.61	0.459	0.578	0.618	0.552	0.659	0.33	0.292	0.315	0.324	1.02
HARA	0.659	0.681	0.484	0.467	0.447	0.583	0.343	0.63	0.565	0.608	0.283	0.333	0.248	0.262	0.207	0.496
HCC-15	0.296	0.282	0.238	0.745	0.64	0.665	0.419	0.386	0.359	0.405	0.375	0.752	0.675	0.73	0.621	0.306
HCC-44	1.04	0.829	0.796	0.605	0.485	0.606	0.341		1.03	1.22	1	1.03	0.954	1.02	0.874	0.565
HCC-78				0.387	0.357	0.363	0.361	0.821	0.478	0.824	0.632	0.404	0.466	0.451	0.484	
HCC-366				0.991	0.862	1.01	0.575	0.304	0.323	0.385	0.15	0.4	0.391	0.502	0.227	
HCC-827	0.281	0.854	0.766	0.314		0.789	0.582	0.493	0.481	0.663	0.512	0.511	0.516	0.603	0.493	0.714
HOP-62	0.953	0.876	0.976	0.902	0.844	0.941	0.793	0.356	0.401	0.401	0.372	0.53	0.483	0.556	0.439	0.912
LC-2-ad	1.09	0.95	0.544	0.941	0.692	0.734	0.374	0.942	0.816	0.934	0.743	0.503	0.529	0.442	0.477	0.821
LCLC-97TM1	0.895		0.615	0.571	0.507	0.526	0.371	0.211	0.22	0.239	0.17	0.232	0.223	0.222	0.21	0.724
